Results on one molecule are retold here after US20040048892A1, “Treatment of diseases with adamantane derivatives” (priority 2000, published 2004).

The target of experiment [1] is T1, nAChR-induced SK2 current (α9/α10 nAChR with SK2 channels) (Rattus norvegicus, UniProt P43144+Q9JLB5).
T1 construct: The coding region of the rat α10 gene; expressed in transfected cells; host or cells: Xenopus laevis oocytes (mRNA co-injection)
As to the kind of experiment: nAChR-induced SK2 current in oocytes coexpressing α9, α10 and SK2. In kind it is cell-based. The settings on record: −30 mV, 100 μM ACh. As to the method: (§1) In vitro mRNA synthesis and oocyte injections were performed as previously described (Fakler et al., 1995, Cell 80, 149-154; Oliver et al., 2000, see above). The electrophysiology on oocytes was also as described previously (Oliver et al., 2000, see above). In detail, AChR subunits and SK2 channels were heterologously expressed in Xenopus oocytes. Oocytes were surgically removed from adult females and dissected manually. 4-5 day prior to electrophysiological recordings, Dumont stage VI oocytes were injected with about 50 ng RNA. For coexpression experiments, the total amount of RNA was kept constant and the different RNAs were coinjected in equal concentrations. Two-electrode voltage-clamp measurements were performed with a TurboTec 01C amplifier (npi, Tamm, Germany), using microelectrodes of 0.1 to 0.5 MΩ filled with 3 M KCl. Extracellular medium was CaNFR, containing (in mM): 120 KCl, 2.5 KCl, 2 CaCl2, 10 HEPES, pH adjusted to 7.3 with NaOH. For experiments in the absence of extracellular Ca^2+, the extracellular solution was MgNFR (in mM): 120 KCl, 2.5 KCl, 2 MgCl2, 10 HEPES, pH adjusted to 7.3 with NaOH. […]
(A) Application of 100 μM ACh for the time indicated to an oocyte coexpressing α9, α10, and SK2. […] Peak outward currents were recorded at −30 mV and were normalized to the values preceding memantine application.

Experiment [2] concerns inhibitory postsynaptic currents (IPSC) in outer hair cells (OHCs). As to the kind of experiment: Patch-clamp recording of inhibitory postsynaptic currents (IPSC) in outer hair cells. In kind it is cell-based, Wistar rats. As to the method: (§2) The apical turn of the organ of Corti was dissected from cochleae of three to six week old Wistar rats as described previously (Oliver et al., 1999, J Physiol (Lond) 519, 791-800; Oliver et al., 2000, Neuron 26, 595-601). The preparation was performed in a solution containing (in mM) 144 NaCl, 5.8 KCl, 0.1 CaCl2, 2.1 MgCl2, 10 HEPES, 0.7 Na2HPO4, 5.6 glucose, pH adjusted to 7.3 with NaOH. For recordings, OHCs located between half and one turn from the apex of the cochlea were chosen. If necessary, supporting cells were removed with gentle suction from a cleaning pipette carefully avoiding mechanical disturbance of the efferent nerve terminals.
Whole-cell patch-clamp recordings were performed with an Axopatch 200B amplifier (Axon Instruments, Foster City, Calif.) at room temperature (22-25° C.). Electrodes were pulled from quartz glass, had resistances of 2-3 MΩ and were filled with intracellular solution (in mM): 135 KCl, 3.5 MgCl2, 0.1 CaCl2, 5 EGTA, 5 HEPES, 2.5 Na2ATP. For one series of experiments, an intracellular solution containing the Ca^2+-chelator BAPTA was used (in mM): 120 KCl, 3.5 MgCl2, 10 BAPTA, 5 HEPES, 2.5 Na2ATP. The pH of both solutions was adjusted to pH 7.3 with KOH. Membrane potential was corrected for the electrode junction potential (−4 mV). Whole-cell series resistance ranged from 4 to 9 MΩ and was not compensated. Currents were filtered at 1 kHz and sampled at 5 kHz. The specimen were continuously superfused with extracellular solution (in mM: 144 NaCl, 5.8 KCl, 2 CaCl2, 0.9 MgCl2, 10 HEPES, 0.7 Na2HPO4, 5.6 glucose, pH adjusted to 7.3 with NaOH). Chemicals as well as depolarizing solutions were applied via a glass capillary (diameter approximately 80 μm) positioned close to the organ of Corti. […]
In FIG. 1, postsynaptic currents were recorded from OHCs in voltage-clamp experiments when cells were held at −64 mV and the whole Corti preparation was superfused with high extracellular K^+ to depolarize the presynapse. […] This dose-dependent response determined for the IPSC in OHCs is illustrated in FIG. 1B.

Experiment [3] concerns the target T2, α9/α10 nAChR (Rattus norvegicus, UniProt P43144+Q9JLB5).
T2 construct: The coding region of the rat α10 gene; expressed in transfected cells; host or cells: Xenopus laevis oocytes (mRNA injection)
As to the kind of experiment: Two-electrode voltage-clamp on α9/α10 nAChR expressed in Xenopus oocytes. In kind it is cell-based. As to the method: In vitro mRNA synthesis and oocyte injections were performed as previously described (Fakler et al., 1995, Cell 80, 149-154; Oliver et al., 2000, see above). The electrophysiology on oocytes was also as described previously (Oliver et al., 2000, see above). In detail, AChR subunits and SK2 channels were heterologously expressed in Xenopus oocytes. Oocytes were surgically removed from adult females and dissected manually. 4-5 day prior to electrophysiological recordings, Dumont stage VI oocytes were injected with about 50 ng RNA. For coexpression experiments, the total amount of RNA was kept constant and the different RNAs were coinjected in equal concentrations. Two-electrode voltage-clamp measurements were performed with a TurboTec 01C amplifier (npi, Tamm, Germany), using microelectrodes of 0.1 to 0.5 MΩ filled with 3 M KCl. Extracellular medium was CaNFR, containing (in mM): 120 KCl, 2.5 KCl, 2 CaCl2, 10 HEPES, pH adjusted to 7.3 with NaOH. For experiments in the absence of extracellular Ca^2+, the extracellular solution was MgNFR (in mM): 120 KCl, 2.5 KCl, 2 MgCl2, 10 HEPES, pH adjusted to 7.3 with NaOH. ACh and memantine were added from stock solutions and applied through an application system, that allowed solution exchange with a time constant of ˜1s. Currents were filtered at 100 Hz and sampled at a frequency of 1 kHz. Dose-inhibition relations obtained from electrophysiological experiments were fitted to the empirical Hill equation, [formula]
where Inorm is the normalized current, c is the blocker concentration, IC50 is the half-inhibitory concentration, and nH is the Hill coefficient. Data analysis and fitting was performed with IgorPro (Wavemetrics, Lake Oswego, Oreg.) on a Macintosh PowerPC. Unless stated otherwise, data are presented as mean±standard deviation.
The coding region of the rat α10 gene (GenBank Accession No. AF196344) was amplified from rat brain cDNA by PCR using 5′- and 3′-adapter-primers containing suitable restriction sites (GA-GACCCGGGAGCTCCACC, […] and […]). The amplified fragments were subcloned into the Xenopus oocyte expression vector pGEM-HE (gift of Dr. J. Tytgat), yielding pGEM-HE-nAChR-α10, verified by sequencing. Capped mRNAs for α9, α10 and SK2 were synthesized in vitro using the mMESSAGE mMACHINE kit (Ambion, Austin, Tex.). To detect α10 and α9 transcripts, PCR was performed using reverse transcribed RNA isolated from either OHCs (containing some Deiters cells) or supporting cells (Deiters and Hensen's cells) as template. Cells were collected from rat organs of Corti using suction glass micropipettes (diameter 10 μm). RNA was prepared from ˜100 cells of each fraction using the Qiagen RNeasy kit (Qiagen, Hilden, FRG) according to the manufacturers instructions. The oligonucleotides used as primers in the PCR reactions were chosen to span an intron in the human α9 and α10 genes to allow differentiation between products originating from cDNA and products originating from contaminating genomic DNA.
In (A) currents evoked by activation of α9/α10 nAChRs are dependent on external Ca^2+. Traces show subsequent applications of 100 μM ACh to the same oocyte in CaNFR (Ca^2+) and MgNFR (Mg^2+) at −80 mV. (B) Currents from homomeric α9 (upper trace) and heteromeric α9/α10 nAChRs (lower trace), recorded by application of 100 μM ACh in nominally Ca^2+-free external solution (MgNFR; −80 mV). (C) Current amplitudes from oocytes expressing α9 and α9/α10, recorded as in FIG. 3B (mean±standard error from 12 and 15 oocytes, respectively). (D) ACh-induced (100 μM) currents recorded from α9/α10 nAChRs in the presence of the memantine concentrations indicated. (E) Memantine dose-inhibition curves of α9/α10 nAChR. Peak currents were recorded as in (D) and normalized to the current amplitude after washout of the blocker. […] (F) I-v relations of α9/α10 nAChR recorded in the absence (black) and presence (gray trace) of 1 μM memantine in response to 2 s voltage ramps from −100 to +50 mV. […]

The target of experiment [4] is neuronal α4/β2 nAChRs (Homo sapiens, UniProt P17787+P43681). As to conditions: at −100 mV; cited from earlier work.
Sequence of neuronal α4/β2 nAChRs (P43681 29-627 limits assumed): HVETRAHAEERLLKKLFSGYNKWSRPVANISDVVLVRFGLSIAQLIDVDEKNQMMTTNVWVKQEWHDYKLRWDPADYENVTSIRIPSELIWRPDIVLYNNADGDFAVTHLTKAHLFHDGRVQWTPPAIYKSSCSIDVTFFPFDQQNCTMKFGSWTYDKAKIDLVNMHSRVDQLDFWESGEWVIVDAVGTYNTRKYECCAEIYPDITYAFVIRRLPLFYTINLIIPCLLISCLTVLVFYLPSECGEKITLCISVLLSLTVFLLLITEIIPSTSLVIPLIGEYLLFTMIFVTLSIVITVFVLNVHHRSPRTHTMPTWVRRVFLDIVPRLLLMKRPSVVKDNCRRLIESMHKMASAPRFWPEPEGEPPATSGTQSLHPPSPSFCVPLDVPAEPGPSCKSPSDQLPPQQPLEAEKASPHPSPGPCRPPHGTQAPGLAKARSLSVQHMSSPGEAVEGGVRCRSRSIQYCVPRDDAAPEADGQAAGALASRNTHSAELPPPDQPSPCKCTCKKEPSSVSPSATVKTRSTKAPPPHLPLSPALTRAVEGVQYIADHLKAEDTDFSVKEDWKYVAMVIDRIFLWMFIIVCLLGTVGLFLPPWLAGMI
Sequence of neuronal α4/β2 nAChRs (P17787 26-502): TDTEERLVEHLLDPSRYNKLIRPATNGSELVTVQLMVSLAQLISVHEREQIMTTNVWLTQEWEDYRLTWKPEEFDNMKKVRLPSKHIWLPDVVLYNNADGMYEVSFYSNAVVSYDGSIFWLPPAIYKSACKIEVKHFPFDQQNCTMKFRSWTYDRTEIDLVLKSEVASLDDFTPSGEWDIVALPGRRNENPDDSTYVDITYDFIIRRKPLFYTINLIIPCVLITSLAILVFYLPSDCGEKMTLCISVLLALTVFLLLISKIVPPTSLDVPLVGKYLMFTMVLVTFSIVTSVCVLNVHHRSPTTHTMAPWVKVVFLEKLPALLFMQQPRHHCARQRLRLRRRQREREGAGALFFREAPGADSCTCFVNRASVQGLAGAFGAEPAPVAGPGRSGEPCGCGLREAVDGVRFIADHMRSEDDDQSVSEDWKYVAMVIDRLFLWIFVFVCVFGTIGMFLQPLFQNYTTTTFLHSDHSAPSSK
Experiment [5] concerns the target T3, α9/α10 heteromeric acetylcholine receptors (Rattus norvegicus, UniProt P43144+Q9JLB5).
T3 construct: The coding region of the rat α10 gene; expressed in transfected cells; host or cells: Xenopus laevis oocytes (mRNA injection)
As to the kind of experiment: Experiment 6: voltage-clamp on alpha9/alpha10 acetylcholine receptors in Xenopus laevis oocytes. In kind it is cell-based. As to conditions: cells held at −30 mV, 100 μM acetylcholine; read-out: halfmaximal inhibition concentration. As to the method: as §1, with “NaOH.” for “NaOH. For experiments in the absence of extracellular Ca^2+, the extracellular solution was MgNFR (in mM): 120 KCl, 2.5 KCl, 2 MgCl2, 10 HEPES, pH adjusted to 7.3 with NaOH.”
For further characterization of memantine treatment on the nAChR, the mRNA of alpha9/alpha10 subunits of the acetylcholine receptor were injected in oocytes of Xenopus laevis. […] In this experiment the polarization potential of the cells was measured after application of 100 μM acetylcholine in the presence or absence of memantine. […]

The target in experiment [6] is T4, nAChR currents in OHCs (Rattus norvegicus, UniProt P43144+Q9JLB5).
T4 construct: Currents through nAChRs were recorded from an OHC; from tissue; host or cells: outer hair cells in the apical turn of the organ of Corti, Wistar rat
T4 sequence (P43144 26-479): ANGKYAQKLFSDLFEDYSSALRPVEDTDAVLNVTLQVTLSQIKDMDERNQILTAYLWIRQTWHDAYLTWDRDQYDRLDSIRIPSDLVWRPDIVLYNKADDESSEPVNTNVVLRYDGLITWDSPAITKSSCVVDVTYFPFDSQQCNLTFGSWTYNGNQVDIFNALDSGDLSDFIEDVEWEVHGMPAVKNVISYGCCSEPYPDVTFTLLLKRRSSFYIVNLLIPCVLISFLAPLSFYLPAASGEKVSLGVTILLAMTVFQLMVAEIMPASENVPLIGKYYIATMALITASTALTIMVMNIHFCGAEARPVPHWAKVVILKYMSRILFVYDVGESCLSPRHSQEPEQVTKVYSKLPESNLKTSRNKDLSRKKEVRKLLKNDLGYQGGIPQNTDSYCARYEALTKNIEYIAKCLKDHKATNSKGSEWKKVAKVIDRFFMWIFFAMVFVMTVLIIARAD
T4 sequence (Q9JLB5 25-447): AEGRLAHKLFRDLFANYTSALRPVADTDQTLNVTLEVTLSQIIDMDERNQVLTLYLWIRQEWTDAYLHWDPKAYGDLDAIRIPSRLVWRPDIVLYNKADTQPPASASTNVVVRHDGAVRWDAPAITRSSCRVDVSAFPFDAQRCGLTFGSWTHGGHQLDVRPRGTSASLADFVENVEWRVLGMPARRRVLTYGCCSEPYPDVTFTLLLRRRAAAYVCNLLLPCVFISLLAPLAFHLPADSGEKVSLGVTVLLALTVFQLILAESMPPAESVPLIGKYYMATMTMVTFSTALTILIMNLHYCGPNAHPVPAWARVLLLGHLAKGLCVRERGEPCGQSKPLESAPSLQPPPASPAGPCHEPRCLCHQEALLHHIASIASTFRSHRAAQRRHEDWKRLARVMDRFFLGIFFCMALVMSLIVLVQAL
As to the kind of experiment: Steady-state block of nAChR currents in OHCs (BAPTA intracellular solution). In kind it is cell-based, Wistar rats. The settings on record: −94 mV, 200 μM ACh, 10 mM BAPTA. How it is done:
as §2
Whole-cell patch-clamp recordings were performed with an Axopatch 200B amplifier (Axon Instruments, Foster City, Calif.) at room temperature (22-25° C.). Electrodes were pulled from quartz glass, had resistances of 2-3 MΩ and were filled with intracellular solution (in mM): 135 KCl, 3.5 MgCl2, 0.1 CaCl2, 5 EGTA, 5 HEPES, 2.5 Na2ATP. […]
(A) Steady-state block of nAChR currents in OHCs by memantine. Currents through nAChRs were recorded from an OHC at a holding potential of −94 mV. […] (B) Dose-inhibition relation for memantine block of nAChR currents (squares), recorded from 4 OHCs as in (A). Steady-state amplitudes were normalized to the value recorded in the absence of memantine. […]

In experiment [7] the target is NMDA-type glutamate receptors. The settings on record: at −70 mV; cited from earlier work.

Read-outs that look alike come from different tables or passages of the source.

T2 sequence (P43144 26-479): as the sequence (P43144 26-479) above
T2 sequence (Q9JLB5 25-447): as the sequence (Q9JLB5 25-447) above
T1 sequence (P43144 26-479): as the sequence (P43144 26-479) above
T1 sequence (Q9JLB5 25-447): as the sequence (Q9JLB5 25-447) above
T3 sequence (P43144 26-479): as the sequence (P43144 26-479) above
T3 sequence (Q9JLB5 25-447): as the sequence (Q9JLB5 25-447) above

`CC12CC3CC(C)(C1)CC(N)(C3)C2` [memantine, 3.5-dimethyl-1-adamantanamine]: the “Hill coefficient nH of inhibition of the nAChR-induced SK2 current” value in experiment [1] is 1.1. The IC50 is 0.7 µM in experiment [1] (peak outward currents, read-out: IC50 of inhibition of the nAChR-induced SK2 current); roughly 16.6 µM in experiment [2] (Rattus norvegicus, iPSC, read-out: IC50 for inhibition of IPSC in OHCs); 1.3 µM in experiment [3] (CaNFR (2 mM Ca2+), 100 μM ACh, peak currents, read-out: IC50 of block of α9/α10 nAChR current); 1.6 µM in experiment [3] (MgNFR (nominally Ca2+-free), 100 μM ACh, peak currents, read-out: IC50 of block of α9/α10 nAChR current); roughly 1 µM in experiment [3] (summary of FIGS. 3E, 5B, read-out: affinity for memantine of α9/α10 receptors); 7 µM in experiment [4]. Besides, the results for the IC50 in experiment [5], in experiment [6] (steady-state) and in experiment [7] were roughly 1 µM, 1.1 µM and roughly 1 µM, respectively. Further, the “Hill coefficient of inhibition of IPSCs” value in experiment [2] was determined as 2. For the same molecule, in experiment [2] (IPSCs in OHCs vs SK2 currents in oocytes), the “fold higher concentrations required for inhibition of IPSCs than for inhibition of SK2 currents in the oocyte system” value was determined as 10 fold. Besides, the “Increase of memantine block from +50 mV to −80 mV (factor)” value in experiment [3] (1 μM memantine, voltage ramps, MgNFR) is 1.6. Moreover, the “Hill coefficient nH of block of α9/α10 nAChR current” value in experiment [3] (CaNFR, 100 μM ACh) came out at 1.0; in experiment [3] (MgNFR, 100 μM ACh), 1.2. The “Hill coefficient nH of block of nAChR currents in OHCs” value in experiment [6] is 0.9.
